In ChEMBL document CHEMBL5726682, “Autotaxin inhibitor compounds” (2017):

Molecular target: Autotaxin (Homo sapiens, UniProt Q13822)
Assay: Inhibition Assay: ATX activity is assayed in concentrated conditioned media from Hep3B human hepatocellular carcinoma cells by measuring the amount of choline released from the substrate, lysophosphatidylcholine (LPC) as it is cleaved to LPA. Conditioned media is collected from confluent Hep3B cells and concentrated 20-fold using Centriprep-30 filter devices (Millipore). To assay for autotaxin inhibition, 10-20 μL of the concentrated conditioned media is incubated with 2.5 μL of a test compound in DMSO and 72.5-82.5 μL lyso-PLD buffer (100 mM Tris pH 9, 500 mM NaCl, 5 mM MgCl2, 5 mM CaCl2, 0.05% Triton X-100 in the presence or absence of 0.2% fatty-acid-free human serum albumin) for 15 min at 37° C. After the 15 min incubation, 5 uL of 2 mM LPC (14:0; Avanti Polar Lipids Cat#855575C) diluted in lyso-PLD buffer is added for a final concentration of 100 uM and the incubation continues for 1.5-3 hours at 37° C. 100 μL of a color mix containing 4.5 mM 4-aminoantipyrine, 2.7 mM N-ethyl-N-(2-hydroxy-3-sulfopropyl)-m-toluidine, 21 units/ml horseradish peroxidase and 3 units/mL choline oxidase in 50 mM Tris, pH 8, 4.5 mM MgCl2 is added and the incubation continued for 15 minutes at room temperature before reading the absorbance at 555 nm.

Compound	IC50
Cc1c(Sc2cccc(C(=O)O)c2)c2ccc(Cl)c(F)c2n1CC(=O)N1CC2(CCN(C)CC2)c2ccccc21	< 0.5 µM
O=C(O)c1cccc(Sc2c(C3CC3)n(CC(=O)N3CCC(O)(C(F)(F)F)C3)c3c(F)c(Cl)ccc23)c1F (centres undefined)	< 0.5 µM
Cc1c(Sc2cccc(C(=O)O)c2)c2ccc(Cl)c(F)c2n1CCC(=O)Nc1ccccc1	< 0.5 µM
O=C(O)c1cccc(Sc2c(Cl)n(CC(=O)N3CC4(CC4)c4ccccc43)c3c(F)c(Cl)ccc23)c1F	< 0.5 µM
Cc1c(Sc2cccc(C(=O)O)c2)c2ccc(Cl)cc2n1C(=O)NCc1ccccc1	> 3 µM
O=C(O)c1cccc(Sc2c(Cl)n(CC(=O)N3CCC(O)(C(F)(F)F)C3)c3c(F)c(Cl)ccc23)c1F (centres undefined)	< 0.5 µM
O=C(O)c1cccc(Sc2c(C3CC3)n(CC(=O)N3CC4(CCC4)c4ccccc43)c3c(F)c(Cl)ccc23)c1F	< 0.5 µM
Cc1c(Sc2cccc(C(=O)O)c2)c2ccc(Cl)c(F)c2n1CC(=O)N1CCCCC1CCn1cccn1 (centres undefined)	< 0.5 µM
O=C(O)c1cccc(Sc2c(C3CC3)n(CCN3CC4(CCC4)c4ccccc43)c3c(F)c(Cl)ccc23)c1F	< 0.5 µM
O=C(O)c1cccc(Sc2c(C3CC3)n(CC(=O)N3CC4(CC4)c4ccccc43)c3c(F)c(Cl)ccc23)c1F	< 0.5 µM

Continued, values first:

IC50	Compound
< 0.5 µM	Cc1c(Sc2cccc(C(=O)O)c2)c2ccc(Cl)c(F)c2n1CC(=O)N1CCc2ccc(C(F)(F)F)cc21
< 0.5 µM	Cc1c(Sc2cccc(C(=O)O)c2)c2ccc(Cl)c(F)c2n1CC(=O)N1CCc2c(F)cccc21
< 0.5 µM	Cc1c(Sc2cccc(C(=O)O)c2)c2ccc(Cl)c(F)c2n1CC(=O)N1CC2(CCN(C)CC2)C1
< 0.5 µM	Cc1c(Sc2cccc(C(=O)O)n2)c2ccc(Cl)c(F)c2n1CC(=O)N1CCC(O)(C(F)(F)F)C1 (centres undefined)
< 0.5 µM	Cc1c(Sc2cccc(C(=O)O)n2)c2ccc(Cl)c(F)c2n1CC(=O)N1CCC2(CC1)CNC(=O)O2
< 0.5 µM	Cc1c(Sc2cccc(C(=O)O)c2)c2ccc(Cl)c(F)c2n1CC(=O)N1CCC2(COC2)C1
< 0.5 µM	Cc1c(Sc2cccc(C(=O)O)c2F)c2ccc(Cl)c(F)c2n1CC(=O)N1CCC(C(C)(C)O)C1 (centres undefined)
< 0.5 µM	Cc1c(Sc2cccc(C(=O)O)c2)c2ccc(Cl)c(F)c2n1CC(=O)N1CCC(C#N)C1 (centres undefined)
< 0.5 µM	Cc1c(Sc2cccc(C(=O)O)c2)c2ccc(Cl)c(F)c2n1CC(=O)N1CCC(c2cnn(C)c2)CC1
